Counter-ions that a name gives are not always drawn.
Experiments:
[1] = Test 4: stability of compounds in human liver microsomes; format: in vitro ADME; conditions: for Remaining Percentage (%) 0 h / Remaining Percentage (%) 8 h / Remaining Percentage (%) 16 h / Remaining Percentage (%) 24 h / Remaining Percentage (%) 32 h / Remaining Percentage (%) 48 h: 0.5 mg/mL liver microsomal protein, 1 mM NADPH, 37° C., N=1; for Half-time period: human liver microsomes
Description: Test 4: Evaluation of Stability of Compounds in Human Liver Microsomes
Assay system: the metabolic stability of the compounds in the present invention were determined by employing a mixture of male and female liver microsomes (Jiangyin Qi Biotechnology Co., Ltd.) and 1 mM NADPH. Samples were analyzed by a mass spectrometer. HRMS was used to determine the peak area response ratio (corresponding to the peak area of the compound to be tested or control compound being divided by the peak area of the internal standard) without running the standard curve. In order to detect all possible metabolites, HRMS scan were performed within an appropriate m/z range.
Determination condition: the assay was performed with one time incubation (N=1). The compounds to be tested were incubated at 37° C. in a PBS buffer containing 0.5 mg/mL liver microsomal protein.
Determination quality control: compare the testosterone of control compound in parallel to determine the enzyme […] of (liver) microsomes. After the last time point, […]
Aqueous phase (A): 90% water, 10% buffer;
Organic phase (B): 90% acetonitrile, 10% buffer;
Autosampler: injection volume 10 μL

NCI-H1975 = assay: Test 5: effect in nude mice implanted with NCI-H1975; format: in vivo
Description: Test 5: Effect Assess in Nude Mice Implanted with NCI-H1975
To nude mice implanted with NCI-H1975, was administered 3.6 μgig (compound/nude mice weight) once a day in one group, and 7.2 μgig once a day in another group, and the tumor size was observed after continuous administration for 10 days.

[2] = Effect Embodiment 2: rat pharmacokinetics after intragastric administration; format: in vivo, SD rats; conditions: rats, 25 mg/kg intragastric, n=6, compared with AZD9291
Text: 2.1. Grouping of Experimental Animals:
24 SD rats were half male and half female, randomly divided into 4 groups, 6 rats in each group, half male and half female
1-3 male, NO. […] 7-9 male, NO. 10-12 female
2.2. Experimental Reagents and Administration Modes
Intragastric Administration:
2. grouping and weighing rats;
4. the blood samples were centrifuged, supernatant was extracted, treated, and analyzed.

[3] = Dose 3.6 μg/g once a day for 10 days
[4] = Dose 7.2 μg/g once a day for 10 days

| Structure (SMILES) | Remaining Percentage (%) 0 h [1] [%] | Remaining Percentage (%) 8 h [1] [%] | Remaining Percentage (%) 16 h [1] [%] | Remaining Percentage (%) 24 h [1] [%] | Remaining Percentage (%) 32 h [1] [%] | Remaining Percentage (%) 48 h [1] [%] | Half-time period [1] [h] | tumor size 11th d (NCI-H1975; [3]) [mm] | tumor size 0 d (NCI-H1975; Dose 3.6 μg/g once a day) [mm] | tumor size 11th d (NCI-H1975; [4]) [mm] | tumor size 0 d (NCI-H1975; Dose 7.2 μg/g once a day) [mm] | inhibitory effect on tumor growth (NCI-H1975; low dose (3.6 μg/g)) | pharmacokinetics (mean drug concentration-time curve, FIG. 2) [2] |
| --- | --- | --- | --- | --- | --- | --- | --- | --- | --- | --- | --- | --- | --- |
| C=CC(=O)Nc1cc(Nc2nccc(-c3cn(C)c4ccccc34)n2)c(OC)cc1N(C)CCN(C)C.CS(=O)(=O)O [AZD9291, reference compound] | 100 | 82 | 61 | 48 | 34 | 14 | 24 | 13 | 13 | 8 | 12 | very low inhibitory effect on tumor growth | – |
| [2H]C([2H])([2H])N(C)CCN(C)c1cc(OC)c(Nc2nccc(-c3cn(C)c4ccccc34)n2)cc1NC(=O)C=C [Embodiment 1B, N-(2-{2-[methyl(D3-methyl)amino]ethyl-methylamino}-4-methoxy-5-{[4-(1-methylindol-3-yl)pyrimidin-2-yl]amino}phenyl)-2-acrylamide mesylate] | 100 | 93 | 86 | 77 | 70 | 67 | >48 | 6 | 12 | 5 | 13 | – | – |
| [2H]C([2H])([2H])N(CCN(C)c1cc(OC)c(Nc2nccc(-c3cn(C)c4ccccc34)n2)cc1NC(=O)C=C)C([2H])([2H])[2H] [Embodiment 2B, N-(2-{2-di(D3-methyl)aminoethyl-methylamino}-4-methoxy-5-{[4-(1-methylindol-3-yl)pyrimidin-2-yl]amino}phenyl)-2-acrylamide mesylate] | 100 | 97 | 90 | 82 | 75 | 81 | >48 | 5 | 12 | 4 | 12 | – | – |
| [2H]C([2H])([2H])n1cc(-c2ccnc(Nc3cc(NC(=O)C=C)c(N(C)CCN(C)C)cc3OC)n2)c2ccccc21 [Embodiment 3B, N-(2-{2-dimethylaminoethyl-methylamino}-4-methoxy-5-{[4-(1-D3-methyl)indol-3-yl)pyrimidin-2-yl]amino}phenyl)-2-acrylamide mesylate] | 100 | 90 | 82 | 73 | 64 | 55 | >48 | 9 | 14 | 7 | 13 | – | better pharmacokinetics |
| [2H]C([2H])([2H])Oc1cc(N(C)CCN(C)C)c(NC(=O)C=C)cc1Nc1nccc(-c2cn(C)c3ccccc23)n1 [Embodiment 4B, N-(2-{2-dimethylaminoethyl-methylamino}-4-(D3-methoxy)-5-{[4-(1-methylindol-3-yl)pyrimidin-2-yl]amino}phenyl)-2-acrylamide mesylate] | 100 | 89 | 81 | 72 | 63 | 51 | >48 | 8 | 13 | 6 | 11 | – | – |
| [2H]C([2H])([2H])N(CCN(C)C)c1cc(OC)c(Nc2nccc(-c3cn(C)c4ccccc34)n2)cc1NC(=O)C=C [Embodiment 5B, N-(2-{2-dimethylaminoethyl-(D3-methyl)amino}-4-methoxy-5-{[4-(1-methylindol-3-yl)pyrimidin-2-yl]amino}phenyl)-2-acrylamide mesylate] | 100 | 91 | 84 | 75 | 69 | 66 | >48 | 10 | 11 | 8 | 14 | – | – |
| [2H]C([2H])([2H])N(CCN(C)c1cc(OC)c(Nc2nccc(-c3cn(C([2H])([2H])[2H])c4ccccc34)n2)cc1NC(=O)C=C)C([2H])([2H])[2H] [Embodiment 6B, N-(2-{2-di(D3-methyl)aminoethyl-methylamino}-4-methoxy-5-{[4-(1-(D3-methyl)indol-3-yl)pyrimidin-2-yl]amino}phenyl)-2-acrylamide mesylate] | 100 | 92 | 80 | 76 | 65 | 58 | >48 | – | – | – | – | – | – |
